{
  "source": "patent US5405852A",
  "about": "“Amide derivatives” (Zeneca Limited, priority 1992, dated 1995)",
  "molecular_target": "T1, human leukocyte elastase (HLE) (Homo sapiens, UniProt P08246)",
  "T1 sequence (P08246 30-267)": "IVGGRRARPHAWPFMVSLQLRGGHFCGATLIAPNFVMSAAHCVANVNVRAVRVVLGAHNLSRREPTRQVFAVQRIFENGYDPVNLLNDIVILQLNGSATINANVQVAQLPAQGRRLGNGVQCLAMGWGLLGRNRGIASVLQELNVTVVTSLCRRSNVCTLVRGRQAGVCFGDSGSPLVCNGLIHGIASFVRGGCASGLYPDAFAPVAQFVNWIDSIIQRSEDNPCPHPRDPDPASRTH",
  "test": "Inhibition of human leukocyte elastase (HLE) on methoxy-succinyl-alanyl-alanyl-prolyl-valine-p-nitroanilide",
  "assay_type": "biochemical",
  "conditions": "dissociation constant of the inhibitor-HLE complex",
  "method": "The potency of a Compound to act as an inhibitor of human leukocyte elastase (HLE) on the low molecular weight peptide substrate methoxy-succinyl-alanyl-alanyl-prolyl-valine-p-nitroanilide is determined as described in U.S. Pat. No. 4,910,190. The potency of an inhibitor is evaluated by obtaining a kinetic determination of the dissociation constant, Ki, of the complex formed from the interaction of the inhibitor with HLE. If a Compound is found to be a \"slow-binding\" inhibitor of HLE, special methods of analysis to accurately determine Ki values for the inhibition of HLE are carried out as described in U.S. Pat. 4,910,190.",
  "data": [
    {"smiles": "CC(C)C(NC(=O)Cn1c(-c2ccccc2)cc2c([nH]c3c(C=O)cccc32)c1=O)C(=O)C(F)(F)F", "note": "(stereo not shown) [Example 2, 2-(8-Formyl-1-oxo-3-phenyl-1,2-dihydropyrido[3,4-b]indol2-yl)-N-(3,3,3-trifluoro-1-isopropyl-2-oxopropyl)acetamide]", "values": [
      {"measurement": "Ki", "result": 0.027, "unit": "µM"}
    ]}
  ]
}
